Measurements taken from patent US20240016150A1, “MIXTURES CONTAINING METARYLPICOXAMID” (BASF SE, priority 2020, published 2024).

Columns and labels:
[1] = system: Septoria tritici; experiment: Microtest: activity against leaf blotch on wheat; format: cell-based; conditions: single active, MTP, 405 nm, 7 days after inoculation
Procedure: The active compounds were formulated separately as a stock solution having a concentration of 10000 ppm in dimethyl sulfoxide. The stock solutions were mixed according to the ratio, pipetted onto a micro titer plate (MTP) and diluted with water to the stated concentrations. EXAMPLE 1—Activity against leaf blotch on wheat caused by Septoria tritici A spore suspension of Septoria tritici in an aqueous biomalt or yeast-bactopeptone-glycerine or DOB solution was then added. The plates were placed in a water vapor-saturated chamber at a temperature of 18° C. Using an absorption photometer, the MTPs were measured at 405 nm 7 days after the inoculation. The measured parameters were compared to the growth of the active compound-free control variant (100%) and the fungus-free blank value to determine the relative growth in % of the pathogens in the respective active compounds. These percentages were converted into efficacies. An efficacy of 0 means that the growth level of the pathogens corresponds to that of the untreated control; an efficacy of 100 means that the pathogens were not growing. The expected efficacies of active compound mixtures were determined using Colby's formula [R.S. Colby, “Calculating synergistic and antagonistic responses of herbicide combinations”, Weeds 15, 20-22 (1967)] and compared with the observed efficacies.

[2] = system: Phakopsora pachyrhizi; experiment: Greenhouse: curative control of soybean rust on soybeans; format: in vivo; conditions: single active, sprayed to run-off, soybean seedlings, assessed after 14 days
Procedure: EXAMPLE 1—Curative control of soybean rust on soybeans caused by Phakopsora pachyrhizi
Leaves of potted soybean seedlings were inoculated with spores of Phakopsora pachyrhizi. To ensure the success of the artificial inoculation, the plants were transferred to a humid chamber with a relative humidity of about 95% and 20 to 24 ? C for 24 h. The next day the plants were cultivated for 2 days in a greenhouse chamber at 23-27 °C and a relative humidity between 60 and 80%. Then the plants were sprayed to run-off with the previously described spray solution, containing the concentration of active ingredient or their mixture as described below. The plants were allowed to air-dry. Then the trial plants were cultivated for 14 days in a greenhouse chamber at 23-27 °C and a relative humidity between 60 and 80%. The extent of fungal attack on the leaves was visually assessed as % diseased leaf area.
The disease ratings (or diseased leaf area) were converted into efficacies.
An efficacy of 0 means that the infection level of the treated plants corresponds to that of the untreated control plants; an efficacy of 100 means that the treated plants were not infected.
The expected efficacies of active compound mixtures were determined using Colby's formula [R.S. Colby, “Calculating synergistic and antagonistic responses of herbicide combinations”, Weeds 15, 20-22 (1967)] and compared with the observed efficacies.

[3] = system: Alternaria solani; experiment: Microtest: activity against early blight; format: cell-based; conditions: single active, MTP, 405 nm, 7 days after inoculation
Procedure: The active compounds were formulated separately as a stock solution having a concentration of 10000 ppm in dimethyl sulfoxide. The stock solutions were mixed according to the ratio, pipetted onto a micro titer plate (MTP) and diluted with water to the stated concentrations. Example 2—Activity against early blight caused by Alternaria solani A spore suspension of Alternaria solani in an aqueous biomalt or yeast-bactopeptone-glycerine or DOB solution was then added. The plates were placed in a water vapor-saturated chamber at a temperature of 18° C. Using an absorption photometer, the MTPs were measured at 405 nm 7 days after the inoculation. The measured parameters were compared to the growth of the active compound-free control variant (100%) and the fungus-free blank value to determine the relative growth in % of the pathogens in the respective active compounds. These percentages were converted into efficacies. An efficacy of 0 means that the growth level of the pathogens corresponds to that of the untreated control; an efficacy of 100 means that the pathogens were not growing. The expected efficacies of active compound mixtures were determined using Colby's formula [R.S. Colby, “Calculating synergistic and antagonistic responses of herbicide combinations”, Weeds 15, 20-22 (1967)] and compared with the observed efficacies.

SMILES | Observed efficacy ([1]; 0.063 ppm) | Observed efficacy ([1]; 0.25 ppm) | Observed efficacy ([2]; 1 ppm) | Observed efficacy ([1]; 4 ppm) | Observed efficacy ([3]; 1 ppm) | Observed efficacy ([2]; 0.25 ppm) | Observed efficacy ([3]; 0.016 ppm)
O=C(NC1CCC1c1ccc(Cl)cc1Cl)c1cccnc1C(F)(F)F (centres unmarked) [Compound II-2, N-[2-(2,4-dichlorophenyl)cyclobutyl]-2-(trifluoromethyl)pyridine-3-carboxamide] | 12 | 49 | – | – | – | – | –
CCC(=O)Oc1c(OC)ccnc1C(=O)N[C@@H](C)C(=O)O[C@@H](C)[C@@H](C)c1ccccc1C [Compound I, [(1S,2S)-1-methyl-2-(o-tolyl)propyl] (2S)-2-[(4-methoxy-3-propanoyloxy-pyridine-2-carbonyl)amino]propanoate] | – | – | 18 | 56 | 0 | – | –
CON(Cc1ccc(-c2noc(C(F)(F)F)n2)cc1)C(=O)C1CC1 [Compound II-1, N-methoxy-N-[[4-[5-(trifluoromethyl)-1,2 ,4-oxadiazol-3-yl]phenyl]methyl]cyclopropanecarboxamide] | – | – | 14 | – | – | 0 | 0
